Measured values from patent publication US4258180A, “C6-Modified cyclodextrin sulfate salts as complement inhibitors” (American Cyanamid Company, priority 1979, dated 1981).
Structures can show the parent of a compound that is named as a salt.

Columns and labels:
complement system = conditions: British Journal of Experimental Pathology, 33, 327-339 (1952); cited from earlier work
[1] = system: hereditary angio-neurotic edema; conditions: literature reports; cited from earlier work
[2] = system: late components of human complement (C3-C9); assay: Test Code 035 (C3-C9 inhibitor), lysis of EAC 142; assay type: biochemical; conditions: serial dilution assay, twofold dilutions; higher well number indicates higher activity; N = Negative
From the text: (§1) An active inhibitor protects C2 from C1 and C4; (ii) Test Code 035 (C3-C9 inhibitor)--This test determines the ability of the late components of human complement (C3-C9) to lyse EAC 142 in the presence of appropriate dilutions of the test compound. An active inhibitor protects EAC 142 from lysis by human C3-C9; (iii) Test Code 036 (C-Shunt inhibitor)--In this test human erythrocytes rendered fragile are lysed in autologous serum via the shunt pathway activated by cobra venom factor in the presence of appropriate dilutions of the test compound. Inhibition of the shunt pathway results in failure of lysis; (iv) Forssman Vasculitis Test--Here, the well known complement dependent lesion, Forssman Vasculitis, is produced in guinea pigs by intradermal injection of rabbit anti-Forssman antiserum. The lesion is measured in terms of diameter, edema and hemorrhage and the extent to which a combined index of these is inhibited by prior intraperitoneal injection of the test compound at 200 mg/kg is then reported, unless otherwise stated; (v) Forssman Shock Test--Lethal shock is produced in guinea pigs by an i.v. injection of anti-Forssman antiserum and the harmonic mean death time of treated guinea pigs is compared with that of simultaneous controls; (vi) Complement Level Reduction Test--In this test, the above dosed guinea pigs, or others, are bled for serum and the complement level is determined in undiluted serum by the capillary tube method of U.S. Pat. No. 3,876,376 and compared to undosed control guinea pigs; and (vii) Cap 50 Test--Here, appropriate amounts of the test compound are added to a pool of guinea pig serum in vitro, after which the undiluted serum capillary tube assay referred to above is run. The concentration of compound inhibiting 50% is reported.

activated human C1 = activated human C1 (Homo sapiens, UniProt P09871); assay: Test Code 026 (C1 inhibitor); assay type: biochemical; conditions: serial dilution assay, twofold dilutions; higher well number indicates higher activity
From the text: as §1

shunt pathway = assay: Test Code 036 (C-Shunt inhibitor), lysis of fragile human erythrocytes in autologous serum, cobra venom factor; assay type: biochemical; conditions: serial dilution assay, twofold dilutions; higher well number indicates higher activity; N = Negative
From the text: as §1

In the case of heparin, the anticomplementary effect (complement system) is listed as “anticomplementary effect”.

In the case of `NC[C@H]1CC[C@H](C(=O)O)CC1` [tranexamic acid], the “treatment of hereditary angio-neurotic edema” value [1] is given as “used with success”.

For `Nc1ccc2cc(S(=O)(=O)O)cc(O)c2c1N=Nc1ccc(NC(=O)Nc2ccc(N=Nc3c(N)ccc4cc(S(=O)(=O)O)cc(O)c34)c(S(=O)(=O)O)c2)cc1S(=O)(=O)O` [chlorazol fast pink, 3,3'-ureylenebis-[6-(2-amino-8-hydroxy-6-sulfo-1-naphthylazo)]benzenesulfonic acid, tetrasodium salt], the anticomplementary effect (complement system) is listed as “anticomplementary effect”.

For `NCCCCCC(=O)O` [epsilon-aminocaproic acid], the “treatment of hereditary angio-neurotic edema” value [1] is given as “used with success”.

For `O=S(=O)(O)O[C@@H]1[C@@H](OS(=O)(=O)O)[C@H]2O[C@H]3[C@H](OS(=O)(=O)O)[C@@H](OS(=O)(=O)O)[C@@H](O[C@H]4[C@H](OS(=O)(=O)O)[C@@H](OS(=O)(=O)O)[C@@H](O[C@H]5[C@H](OS(=O)(=O)O)[C@@H](OS(=O)(=O)O)[C@@H](O[C@H]6[C@H](OS(=O)(=O)O)[C@@H](OS(=O)(=O)O)[C@@H](O[C@H]7[C@H](OS(=O)(=O)O)[C@@H](OS(=O)(=O)O)[C@@H](O[C@@H]1[C@@H](CBr)O2)O[C@@H]7CBr)O[C@@H]6CBr)O[C@@H]5CBr)O[C@@H]4CBr)O[C@@H]3CBr` [α-Cyclo[6-bromo-6-deoxy]dextrin poly(H-sulfate)poly-trimethy] [α-Cyclo[6-bromo-6-deoxy]dextrin poly(H-sulfate)poly-trimethylamine salt], the “035 Activity in wells” value [2] was 2 wells, the “026 Activity in wells” value (activated human C1) was 2 wells and the “036 Activity in wells” value (shunt pathway) was “N”.
